# Source: PMC1315280, “The Flavoring Agent Dihydrocoumarin Reverses Epigenetic Silencing and Inhibits Sirtuin Deacetylases” (PLoS Genetics, 2005)
# Target: T1, SIRT1 (Homo sapiens, UniProt Q96EB6)
# T1 construct: recombinant SIRT1
# T1 sequence (Q96EB6 2-747): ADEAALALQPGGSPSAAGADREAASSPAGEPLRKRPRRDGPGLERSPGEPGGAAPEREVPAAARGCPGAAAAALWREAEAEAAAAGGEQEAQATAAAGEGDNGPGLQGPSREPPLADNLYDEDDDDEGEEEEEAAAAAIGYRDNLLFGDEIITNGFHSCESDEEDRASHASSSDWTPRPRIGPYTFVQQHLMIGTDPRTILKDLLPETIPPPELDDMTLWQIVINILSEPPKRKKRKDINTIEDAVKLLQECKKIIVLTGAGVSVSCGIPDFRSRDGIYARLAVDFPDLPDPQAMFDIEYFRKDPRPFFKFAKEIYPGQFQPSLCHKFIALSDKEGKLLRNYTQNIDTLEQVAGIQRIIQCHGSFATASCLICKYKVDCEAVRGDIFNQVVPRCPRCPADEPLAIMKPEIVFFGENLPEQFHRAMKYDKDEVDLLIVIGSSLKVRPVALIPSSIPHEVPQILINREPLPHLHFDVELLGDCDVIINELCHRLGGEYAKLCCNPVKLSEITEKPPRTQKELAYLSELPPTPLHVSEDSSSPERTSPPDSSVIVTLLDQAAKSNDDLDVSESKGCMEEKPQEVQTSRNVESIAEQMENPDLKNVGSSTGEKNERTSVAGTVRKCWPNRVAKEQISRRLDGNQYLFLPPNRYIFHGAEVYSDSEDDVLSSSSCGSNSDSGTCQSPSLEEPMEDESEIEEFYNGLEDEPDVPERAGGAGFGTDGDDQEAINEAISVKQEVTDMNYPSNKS
# Assay: in vitro deacetylase assay with recombinant enzyme and [3H] acetylated histone H4 peptide
# Format: biochemical
smiles,measurement,value
"O=C1CCc2ccccc2O1 [DHC, dihydrocoumarin]",IC50,208 µM
